One data set relates to BV2. Briefly: Cell viability assay (MTT), BV2. The settings on record: 48 h. It counts as cell-based, mouse. As to the method: Cell viability was measured by chromogenic assay involving the biological reduction of 3-(4,5-dimethyl-thiazol-2-yl)-2,5-diphenyltetrazoliumbromide (MTT) to formazan in living cells. Briefly, cells were seeded in 96-well plates in a final volume of 100 μL. After 24 h, the culture media were replaced with fresh media containing DTMB compounds, and the cells were cultured for another 48 h. Next, MTT (5 mg/mL in PBS) was added to the culture medium. The cells were incubated for 1 h in the dark at 37 °C, and the supernatant was then removed from the well. Total MTT solvent (4 mM HCl and 0.1% Nonidet P-40, both in isopropanol) was added to dissolve the formazan crystal, and absorbance was measured at 570 nm using a microplate reader Infinite 200 Pro NanoQuant microplate reader (TECAN, Switzerland).

Another data set concerns the target T1, PPARδ (Homo sapiens, UniProt Q03181).
T1 construct: pcDNA5-GAL4-PPAR LBD, pG5-luc, and Rluc vector (as control) were transfected into HEK293A cells; expressed in transfected cells; host or cells: HEK293A
T1 sequence (Q03181 211-439 limits assumed): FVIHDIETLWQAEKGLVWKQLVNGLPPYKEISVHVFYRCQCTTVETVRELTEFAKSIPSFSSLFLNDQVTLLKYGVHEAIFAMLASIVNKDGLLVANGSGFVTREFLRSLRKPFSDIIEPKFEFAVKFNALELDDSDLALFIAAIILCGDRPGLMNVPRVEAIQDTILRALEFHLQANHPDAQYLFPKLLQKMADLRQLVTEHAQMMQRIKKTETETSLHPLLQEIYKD
The experiment in a line: Gal4-transactivation luciferase assay in HEK293A cells, PPARδ LBD. It counts as cell-based. As to the method: HEK293A cells were transfected with the GAL4-reporter plasmids and pGL4.74 (Promega, Madison, WI, USA) as an internal standard through electroporation using a Neon Transfection System (Invitrogen, Carlsbad, CA, USA). All vector materials were provided by Professor Yuichiro Kanno at Toho University. Cells were treated with DTMB and each positive control compound for 24 h after overnight incubation. Cells were then harvested and resuspended in luciferase lysis buffer (Promega), followed by incubation on ice for 10 min. Cell debris was removed by centrifugation at 20,000 × g at 4 °C for 10 min, and the supernatants were used for luciferase assay. Using a dual-luciferase reporter assay system (Promega), luciferase activities were measured according to the manufacturer’s instructions. Experimental firefly luciferase activities were normalized against those of Renilla luciferase.

Data set [1] has as its system 5xFAD mice. The experiment in a line: Immunohistochemistry of Aβ plaques (6e10) in 5xFAD brain. It counts as in vivo. The following applies: 10 mg/kg orally, 3 months, versus transgenic control. As to the method:
(§1) DTMB was synthesized from Daejung Chemicals (Korea) and was dissolved in dimethyl sulfoxide (Sigma Aldrich, St. Louis, MO, USA) for cell-based experiments. To evaluate the effects of DTMB on 5xFAD mice, DTMB (10 mg/kg) and vehicle (1% carboxymethylcellulose and 10% DMSO) were orally administrated to four groups (wild-type, wild-type + DTMB, 5xFAD, and 5xFAD + DTMB) with a 6 day per week for 3 months.
Mice were perfused with ice-cold phosphate-buffered saline (PBS). Brain tissues were separately used for either molecular analysis or immunohistochemistry. The right hemisphere was fixed with 4% PFA and was transferred to a sucrose solution (30%) for 24 h. The right hemisphere was embedded and frozen in optimal cutting temperature compound on dry ice. Coronal Sections (18 μm thick) that included the hippocampus were cut and prepared on slide glasses. Tissue sections were then permeabilized and blocked using a blocking solution (5% goat serum and 0.2% Triton X-100 in PBS) for 1 h at room temperature. Primary antibody incubation was performed overnight at 4 °C using an anti-6e10 antibody (Biolegend, Japan, 1:100), anti-Iba1 antibody (Wako, Japan, 1:200), and anti-GFAP antibody (Abcam, Cambridge, UK, 1:200). […] Slides were counterstained in Hoechst and then mounted in fluorescence mounting medium (Dako, Denmark). […] Fluorescence was measured by calculating % area and was analyzed using ImageJ. […]

Data set [2] deals with 5xFAD mice. The experiment in a line: Soluble/insoluble Aβ extraction, western blot and filter-trap assay. It counts as in vivo. The following applies: 10 mg/kg orally, 3 months. As to the method:
as §1
To investigate soluble and insoluble Aβ components, two extraction steps were performed. Left hemisphere samples were homogenized in cold Tris-buffered saline (TBS consisting of 50 mM Tris-pH 7.5 and 150 mM NaCl) with a protease inhibitor cocktail (Thermo Fisher Scientific, Waltham, MO, USA) at a concentration of 100 mg/mL. After centrifugation at 15,000 rpm for 1 h at 4 °C, the supernatant of the samples was used to conduct western blotting. Insoluble protein was extracted from the pellet by dissolving in 5 M guanidine buffer (5 M guanidine HCl and 150 mM NaCl-pH 7.5). Soluble and insoluble protein samples were stored at −80 °C.
The insoluble fraction of protein lysates in 5xFAD mice was diluted in 1% SDS-PBS and boiled at 95 °C for 5 min. The membrane was pre-equilibrated with 1 × TBS. A dot blotter apparatus (Bio-Rad Laboratories, Hercules, CA, USA) was used for sample application, and 6e10 antibody was used to detect Aβ contents from brain lysates of 5xFAD mice treated with DTMB. […]

Data set [3] deals with T2, recombinant human PPARγ LBD (Homo sapiens, UniProt P37231).
T2 sequence (P37231 238-503 limits assumed): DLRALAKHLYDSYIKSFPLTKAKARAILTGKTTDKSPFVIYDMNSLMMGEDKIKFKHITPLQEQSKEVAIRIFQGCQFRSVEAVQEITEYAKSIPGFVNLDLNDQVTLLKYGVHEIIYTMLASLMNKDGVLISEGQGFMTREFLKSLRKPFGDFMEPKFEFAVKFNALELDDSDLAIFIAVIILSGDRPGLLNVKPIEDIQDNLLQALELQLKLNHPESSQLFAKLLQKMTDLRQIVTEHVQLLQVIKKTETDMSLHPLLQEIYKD
The experiment in a line: CNBr-bead pull down assay, PPARγ LBD. It counts as binding. The settings on record: drug conjugated CNBr beads. How it is done:
CNBr Sepharose 4B beads were prepared and activated according to the instruction. 100 mg of CNBr activated Sepharose 4B beads were incubated with drugs or DMSO for 18 h at 4 °C. The drug conjugated beads reacted to his-tagged recombinant PPAR α, β/δ, and γ protein. After 24 h of incubation, we confirmed whether recombinant protein binds to the drug conjugated bead through western blotting experiment.

For `COc1ccc(-c2cc(=O)oc3c(C)c(OC(=O)[C@H](Cc4c[nH]c5ccccc45)NC(=O)OC(C)(C)C)ccc23)cc1` [DTMB], in the data set on BV2, the “cytotoxicity (MTT)” value is “no cytotoxicity”. The relative luciferase activity entry on PPARδ (HEK293A, 24 h, various concentrations) was “increased luciferase activity”. For the same compound, the “transactivation activity (luciferase) compared to positive control” value at PPARδ (versus positive control) is given as “lower than the positive controls”. Further, the “amount of Aβ aggregates in the hippocampus and cortex” value with 5xFAD mice [1] was “significantly decreased”. In addition, the “Aβ aggregates in the insoluble fraction” value in the data set on 5xFAD mice [2] (5xFAD mice brain lysates) is on record as “decreased”. Further, the amyloid beta monomer result in the data set with 5xFAD mice [2] (5xFAD mice brain) is recorded as “not decreased”. Also, in data set [3], the “binding to PPAR LBD (pull-down, western blot)” value is listed as “binds”.

These data come from article PMC9606171, “Synthetic PPAR Agonist DTMB Alleviates Alzheimer’s Disease Pathology by Inhibition of Chronic Microglial Inflammation in 5xFAD Mice” (Neurotherapeutics, 2022).
